Reference: patent US10322999B2, “Oxindoles derivatives, preparation method thereof and pharmaceutical compositions for the prevention or treatment of cancer containing the same as an active ingredient” (RESEARCH & BUSINESS FOUNDATION SUNGKYUNKWAN UNIVERSITY, priority 2017, dated 2019)

What was measured:
[1] = tested on: human lung cancer cell line (A459); assay: MTT assay, growth inhibition of A549 cells; format: cell-based; conditions: Homo sapiens; MTT, 48 hours incubation, A549; read-out: A549 (IC50)
Experimental: (§1) To evaluate the anticancer activity of the oxindole derivatives produced and analyzed in examples 1 to 8, MTT assay was performed to confirm the growth inhibitory effect on cancer cells. More specifically, human prostate adenocarcinoma cell line (LNCaP), human breast cancer cell line (MCF-7), human ovarian cancer cell line (SKOV3), human lung cancer cell line […] and human renal adenocarcinoma cell line (786-O) were cultured in DMEM medium supplemented with 1% penicillin/streptomycin and 10% fetal bovine serum (All from Life Technologies, Grand Island, N.Y.). Cells were seeded in 96-well plates (3×10^3 cells/well) containing 100 μL of growth medium for 24 hours. After the medium was removed, 100 μL of each of the different analogues (dissolved in DMSO to 0.025% or less) was added to each well and cultured at 37° C. for 48 hours. After 48 hours of incubation, 100 μL of MTT reagent was added to each well. After incubation at 37° C. for 4 hours, the supernatant was aspirated, and the formazan crystals were dissolved in 100 μL of DMSO at 37° C. for 10 minutes with gentle stirring. Absorbance per well was measured at 540 nm using a VERSA max microplate reader (Molecular Devices Corp.). IC50 values were defined as compound concentrations that inhibited cell proliferation by 50% compared to cells treated with the highest amount of DMSO (0.025%) and were considered to be 100% viability.

all carcinomas = assay: MTT assay, summary over all five cancer cell lines; format: cell-based, human; conditions: summary of Table 3, all five cell lines
Experimental: as §1

[2] = tested on: human ovarian cancer cell line (SKOV3); assay: MTT assay, growth inhibition of SKOV3 cells; format: cell-based; conditions: SK-OV-3, MTT, 48 hours incubation, SKOV3, read-out: SKOV3 (IC50)
Experimental: as §1

[3] = tested on: human prostate adenocarcinoma cell line (LNCaP); assay: MTT assay, growth inhibition of LNCaP cells; format: cell-based; conditions: Homo sapiens; MTT, 48 hours incubation, LNCaP; read-out: LNCaP (IC50)
Experimental: as §1

[4] = tested on: human breast cancer cell line (MCF-7); assay: MTT assay, growth inhibition of MCF-7 cells; format: cell-based; conditions: MCF7, MTT, 48 hours incubation, MCF-7, read-out: MCF-7 (IC50)
Experimental: as §1

[5] = tested on: human renal adenocarcinoma cell line (786-O); assay: MTT assay, growth inhibition of 786-O cells; format: cell-based; conditions: Homo sapiens, 786-0; MTT, 48 hours incubation, 786-O; read-out: 786-O (IC50)
Experimental: as §1

Structure (SMILES) | IC50 [1] [µM] | inhibitory activity against all carcinomas (in words) (all carcinomas) | IC50 [2] [µM] | IC50 [3] [µM] | IC50 [4] [µM] | IC50 [5] [µM]
CCCCOC(=O)CC1C(=O)N(Nc2ccccc2CC)c2c(CC)cccc21 (stereo not drawn) [6b, Butyl 2-(7-ethyl-1-((2-ethylphenyl)amino)-2-oxoindolin-3-yl)acetate] | 17.6 | excellent | 15.1 | 13.9 | 14.7 | 12.2
CCc1ccccc1NN1C(=O)C(CC(=O)OCC(C)C)c2cccc(CC)c21 (stereo not drawn) [6d, Isobutyl 2-(7-ethyl-1-((2-ethylphenyl)amino)-2-oxoindolin-3-yl)acetate] | 22.5 | excellent | 14.5 | 12.5 | 14.2 | 12.6
CCCCOC(=O)c1[nH]c2cc(CC)ccc2c1C(=O)OCCCC [7a, Dibutyl 6-ethyl-1H-indole-2,3-dicarboxylate] | 24.4 | excellent | 22.1 | 14.5 | 20.6 | 13.2
